The assay has as its system Human Pan T Cell (IL-2 release). Nature of the assay: IL2 released by human pan T cell upon anti-CD3/anti-CD28 stimulation (ELISA). In kind it is cell-based. The note with it: human pan T cells; for maximal fold induction / EC50 / EC (2-fold response): Homo sapiens, T-cell; for maximal fold induction / EC (2-fold response): 48 h; for maximal fold induction: response of IL-2 over DMSO control, anti-CD3/anti-CD28, 48 hours, ELISA, read-out: IL-2 Max Fold Response; for EC50: IL-2 response, calculated with GraphPad Prism; for EC2x (nM) / EC (2-fold response): concentration of compound that gives 200% IL-2 response (2 folds) over DMSO control. The source says:
For example, Example 5 describes such a functional assay for determining the effect of an HPK1 inhibitor on IL-2 & IFN-γ release upon stimulation of Pan T cells. The secreted IL-2 & IFN-γ can be measured/quantified by standard ELISA assay. Briefly, pan T cells can be isolated from peripheral blood (PB) mononuclear cells (MNCs), or PBMC, using commercially available kits, such as MACS (Miltenyl Biotec) Pan T isolation kit (Cat. No. 130-096-535). Primary human pan-T cells include CD4 and CD8 T cells as well as some gamma/delta T cell subsets. The pan-T cells can be isolated using the negative immunomagnetic separation technique without the use of columns.
Isolated pan-T cells can be dispensed into 96-well plates at 100,000 cells/well, and stimulated with immobilized anti-CD3 antibody and soluable anti-CD28 antibody, or PMA/Ionomycin as the positive control (or culture media as the negative control). Different concentrations of test compounds can be added to the cells to assess the compound effect on cytokine secretion following TCR-stimulation/CD28 co-stimulation. Stimulated cells are incubated for 2 more days, before the supernatant (containing secreted cytokines by pan-T cells) is collected from each well for ELISA assay and quantitation of IL-2 and IFN-γ.
Biology Example 8 Compound Efficacy Study on IL2 & IFN-γ Released by Human Pan T Cell
This example is an assay method that can be used to determine compound effects on IL2 & IFN-γ release using pan T cells and ELISA assay format.
3. Procedures Procedures for Pan T isolation and Reagent preparation (Day 0): 1. Cell Growth Medium: • RPMI1640: ATCC, Cat #30-2001 • 10% FBS: Gibco, Cat #10099141 • 1% Pen-Strep: Gibco, Cat #15140122 • 1% Non-essential amino: Gibco, Cat #11140050 • Beta-Mercaptoethanol: Gibco, Cat #21985023 2. Pan T Isolation Buffer Preparation:
Prepare a solution containing phosphate-buffered saline (PBS), pH 7.2, 0.5% bovine serum albumin (BSA), and 2 mM EDTA by diluting MACS® BSA Stock Solution (#130-091-376) 20 times with autoMACS® Rinsing Solution. Keep buffer at 4° C. Degas buffer before use, as air bubbles could block the column.
3. Thawing of Frozen PBMC • 1) Pre-heat medium at 37° C. water bath. • 2) Rapidly thaw cells in 37° C. water bath. • 3) Add the pre-warmed medium into 15 mL tube. Transfer cells to the tube. • 4) 300×g centrifuge for 8 min. (centrifuge increase 0, decrease 0). • 5) Wash the PBMC using Rinsing buffer. • 6) Centrifuge PBMC at 300×g for 8 min, wash it twice (centrifuge increase 9, decrease 1). • 7) Resuspend the cells with Pan T cells isolation buffer and count cells number. 4. Pan T Cells Isolation: Cell Staining with Microbead Cocktail • 1) Prepare cells and determine cell number. Filter cells by 70 μm cell strainer. • 2) Resuspend cell pellet in 40 μL of buffer per 10^7 total cells. • 3) Add 10 μL of Pan T Cell Biotin-Antibody Cocktail per 10^7 total cells. • 4) Mix well and incubate for 10 minutes in the refrigerator (ice). • 5) Add 30 μL of buffer per 10^7 total cells. • 6) Add 20 μL of Pan T Cell MicroBead Cocktail per 10^7 total cells. • 7) Mix well and incubate for 15 minutes in the refrigerator (ice). • 8) Proceed to subsequent magnetic cell separation. • Note: a. Work fast, keep cells cold, and use pre-cooled solutions (2-8° C.). b. Volumes for magnetic labeling given are for up to 10′ total cells. When working with fewer cells, use the same volumes as indicated. c. When working with higher cell numbers, scale up all reagent volumes and total volumes accordingly. d. For optimal performance it is important to obtain a single-cell suspension before magnetic labeling. Subsequent Manual Cell Separation: • 1) Place LS Column in the magnetic field of a suitable MACS Separator. For details refer to the respective MACS Column data sheet. • 2) Prepare column by rinsing with 3 mL of buffer. • 3) Apply cell suspension onto the column. Collect flow-through, which represents the enriched T cells. • 4) Wash column with 5 mL of buffer. […]

The structures appear in SMILES notation. Some results are limits rather than exact numbers.

What is called EC50 is the concentration needed to bring the measured effect to its halfway point.

Take `COc1cc2c(cc1Nc1ncc(Cl)c(N3CC(P(C)(C)=O)c4ccccc43)n1)CN(C)CC2` (centres unmarked) [Example 88]: the maximal fold induction is under 2 and the EC50 is 500 to 1000 nM. Turning to `COc1cc2c(cc1Nc1ncc(Cl)c(N3CCc4cc(C(F)F)ccc43)n1)CN(C)CC2` [Example 90, N-(5-chloro-4-(5-(difluoromethyl)indolin-1-yl)pyrimidin-2-yl)-6-methoxy-2-methyl-1,2,3,4-tetrahydroisoquinolin-7-amine], the maximal fold induction was under 2 and the EC50 was over 1000 nM.

As to `COc1cc2c(cc1Nc1ncc(Cl)c(N3CCc4ccc(C(F)F)cc43)n1)CN(C)CC2` [Example 91, N-(5-chloro-4-(6-(difluoromethyl)indolin-1-yl)pyrimidin-2-yl)-6-methoxy-2-methyl-1,2,3,4-tetrahydroisoquinolin-7-amine], the maximal fold induction was under 2. Regarding `COc1cc2c(cc1Nc1ncc(Cl)c(N3CCc4c(C(F)F)cccc43)n1)CN(C)CC2` [Example 92, N-(5-chloro-4-(4-(difluoromethyl)indolin-1-yl)pyrimidin-2-yl)-6-methoxy-2-methyl-1,2,3,4-tetrahydroisoquinolin-7-amine], the maximal fold induction is under 2. On to `COc1cc2c(cc1Nc1ncc(Cl)c(-n3cc(C4(O)COC4)c4ccccc43)n1)CN(C)CC2` [Example 93], for which the maximal fold induction was under 2. Regarding `CNC(=O)C1CN(c2nc(Nc3cc4c(cc3OC)CCN(C)C4)ncc2Cl)c2ccccc21` (centres unmarked) [Example 97, 1-(5-Chloro-2-((6-methoxy-2-methyl-1,2,3,4-tetrahydroisoquinolin-7-yl)amino)pyrimidin-4-yl)-N-methylindoline-3-carboxamide], the maximal fold induction was over 2; the EC50 was 100 to 500 nM; the “EC2x (nM)” value is “++ (“++”, for higher values than “+++” but less than or equal to 1 μM)”.

Turning to `COc1cc2c(cc1Nc1ncc(Cl)c(N3CC(C(=O)NS(C)(=O)=O)c4ccccc43)n1)CN(C)CC2` (centres unmarked) [Example 98], the maximal fold induction is under 2.

Consider `COc1cc2c(cc1Nc1ncc(Cl)c(N3CC(C#N)c4ccccc43)n1)CN(C)CC2` (centres unmarked) [Example 99, 1-(5-Chloro-2-((6-methoxy-2-methyl-1,2,3,4-tetrahydroisoquinolin-7-yl)amino)pyrimidin-4-yl)indoline-3-carbonitrile], for which the maximal fold induction was under 2.

Turning to `COc1cc2c(cc1Nc1ncc(Cl)c(N3CC(c4nn[nH]n4)c4ccccc43)n1)CN(C)CC2` (centres unmarked) [Example 100, N-(4-(3-(2H-tetrazol-5-yl)indolin-1-yl)-5-chloropyrimidin-2-yl)-6-methoxy-2-methyl-1,2,3,4-tetrahydroisoquinolin-7-amine], the maximal fold induction was over 2; the half-maximal effective concentration (EC50) was over 1000 nM; the “EC2x (nM)” value is given as “+ (“+”, for greater than 1 μM)”. In the case of `COc1cc2c(cc1Nc1ncc(Cl)c(N3CC(C(=O)NO)c4ccccc43)n1)CN(C)CC2` (centres unmarked) [Example 101, 1-(5-Chloro-2-((6-methoxy-2-methyl-1,2,3,4-tetrahydroisoquinolin-7-yl)amino)pyrimidin-4-yl)-N-hydroxyindoline-3-carboxamide], the maximal fold induction is under 2. Turning to `COc1cc2c(cc1Nc1ncc(Cl)c(N3CC(C(=O)N(C)O)c4ccccc43)n1)CN(C)CC2` (centres unmarked) [Example 102], the maximal fold induction was under 2. Turning to `CONC(=O)C1CN(c2nc(Nc3cc4c(cc3OC)CCN(C)C4)ncc2Cl)c2ccccc21` (centres unmarked) [Example 103, 1-(5-Chloro-2-((6-methoxy-2-methyl-1,2,3,4-tetrahydroisoquinolin-7-yl)amino)pyrimidin-4-yl)-N-methoxyindoline-3-carboxamide], the maximal fold induction was under 2. As for `COc1cc2c(cc1Nc1ncc(Cl)c(N3CC(C(=O)O)c4cc(F)ccc43)n1)CN(C)CC2` (centres unmarked) [Example 104], the EC (2-fold response) fell in the range of 0.1 to 0.5 µM, the maximal fold induction was over 2 and the EC50 was 100 to 500 nM.

Consider `COc1cc2c(cc1Nc1ncc(Cl)c(N3CC(C(=O)O)c4ccc(F)cc43)n1)CN(C)CC2` (centres unmarked) [Example 105], for which the EC (2-fold response) is 0.1 to 0.5 µM, the maximal fold induction is over 2 and the EC50 is at most 100 nM. As for `COc1ccc2c(c1)N(c1nc(Nc3cc4c(cc3OC)CCN(C)C4)ncc1Cl)CC2C(=O)O` (centres unmarked) [Example 107, 1-(5-Chloro-2-((6-methoxy-2-methyl-1,2,3,4-tetrahydroisoquinolin-7-yl)amino)pyrimidin-4-yl)-6-methoxyindoline-3-carboxylic acid], the maximal fold induction is under 2.

On to `COc1cc2c(cc1Nc1ncc(Cl)c(N3CC(C(=O)O)c4c(OC)cccc43)n1)CN(C)CC2` (centres unmarked) [Example 108, 1-(5-Chloro-2-((6-methoxy-2-methyl-1,2,3,4-tetrahydroisoquinolin-7-yl)amino)pyrimidin-4-yl)-4-methoxyindoline-3-carboxylic acid], for which the maximal fold induction is under 2 and the EC50 is over 1000 nM.

Regarding `COc1cc2c(cc1Nc1ncc(F)c(N3CC(C(=O)O)c4ccccc43)n1)CN(C)CC2` (centres unmarked) [Example 109, 1-(5-Fluoro-2-((6-methoxy-2-methyl-1,2,3,4-tetrahydroisoquinolin-7-yl)amino)pyrimidin-4-yl)indoline-3-carboxylic acid], the maximal fold induction is over 2; the EC50 is 100 to 500 nM; the “EC2x (nM)” value is reported as “++ (“++”, for higher values than “+++” but less than or equal to 1 μM)”. Consider `COc1cc2c(cc1Nc1ncc(C#N)c(N3CC(C(=O)O)c4ccccc43)n1)CN(C)CC2` (centres unmarked) [Example 110, 1-(5-Cyano-2-((6-methoxy-2-methyl-1,2,3,4-tetrahydroisoquinolin-7-yl)amino)pyrimidin-4-yl)indoline-3-carboxylic acid], for which the maximal fold induction was under 2. As for `COC(=O)C1CN(c2nc(Nc3cc4c(cc3OC)CCN(C)C4)ncc2C(F)F)c2ccccc21` (centres unmarked) [Example 112], the maximal fold induction was under 2. Consider `COc1cc2c(cc1Nc1ncc(Cl)c(-n3nc(C(=O)O)c4ccccc43)n1)CN(C)CC2` [Example 113], for which the maximal fold induction is under 2 and the half-maximal effective concentration (EC50) was over 1000 nM. Take `COC(=O)C1CN(c2nc(Nc3cc4c(cc3OC)CCN(C)C4)ncc2Cl)c2ccccc21` (centres unmarked) [Example 115, Methyl 1-(5-chloro-2-((6-methoxy-2-methyl-1,2,3,4-tetrahydroisoquinolin-7-yl)amino)pyrimidin-4-yl)indoline-3-carboxylate]: the EC (2-fold response) was 0.1 to 0.5 µM, the maximal fold induction is over 2 and the concentration for a half-maximal effect (EC50) was 100 to 500 nM. As for `COC(=O)C1(C)CN(c2nc(Nc3cc4c(cc3OC)CCN(C)C4)ncc2Cl)c2ccccc21` (centres unmarked) [Example 116], the maximal fold induction was over 2; the concentration giving a half-maximal response (EC50) was 500 to 1000 nM; the “EC2x (nM)” value is on record as “++ (“++”, for higher values than “+++” but less than or equal to 1 μM)”. Regarding `COc1cc2c(cc1Nc1ncc(Cl)c(N3CC(C)(C(N)=O)c4ccccc43)n1)CN(C)CC2` (centres unmarked) [Example 120, 1-(5-Chloro-2-((6-methoxy-2-methyl-1,2,3,4-tetrahydroisoquinolin-7-yl)amino)pyrimidin-4-yl)-3-methylindoline-3-carboxamide], the maximal fold induction was under 2.

The record behind these values is patent US12612424B2, “HPK1 inhibitors and uses thereof” (Regor Pharmaceuticals, Inc., priority 2019, dated 2026).
